Target: human MTP (Homo sapiens, UniProt P55157)
Experiment: human MTP activity assay (SPA, 3H-triolein transfer between liposomes)
Type: biochemical
Conditions: MTP-mediated 3H-triolein transfer from donor to acceptor liposomes, 25 min at 37° C., streptavidin-SPA beads
Method: The ability of the compounds of this invention to inhibit human MTP activity is measured by an in vitro assay where MTP tranfers 3H-triolein between phosphatidylcholine liposomes. The specificity of the compounds of the invention is established by comparing the effects on apoB-100 and apoprotein A-1 production. A specificity of at least 100 is preferred.
The human MTP activity assay was established using SPA technology. Donor liposomes were prepared with 3H-triolein and phosphatidylcholine, while acceptor liposomes contained biotinylated phosphatidylethanolamine and phosphatidylcholine. The MTP-mediated 3H-triolein transfer onto acceptor liposomes was allowed by a 25 min incubation at 37° C., and quantified by the addition of streptavidin-SPA beads.

Chain of human MTP (P55157 19-894): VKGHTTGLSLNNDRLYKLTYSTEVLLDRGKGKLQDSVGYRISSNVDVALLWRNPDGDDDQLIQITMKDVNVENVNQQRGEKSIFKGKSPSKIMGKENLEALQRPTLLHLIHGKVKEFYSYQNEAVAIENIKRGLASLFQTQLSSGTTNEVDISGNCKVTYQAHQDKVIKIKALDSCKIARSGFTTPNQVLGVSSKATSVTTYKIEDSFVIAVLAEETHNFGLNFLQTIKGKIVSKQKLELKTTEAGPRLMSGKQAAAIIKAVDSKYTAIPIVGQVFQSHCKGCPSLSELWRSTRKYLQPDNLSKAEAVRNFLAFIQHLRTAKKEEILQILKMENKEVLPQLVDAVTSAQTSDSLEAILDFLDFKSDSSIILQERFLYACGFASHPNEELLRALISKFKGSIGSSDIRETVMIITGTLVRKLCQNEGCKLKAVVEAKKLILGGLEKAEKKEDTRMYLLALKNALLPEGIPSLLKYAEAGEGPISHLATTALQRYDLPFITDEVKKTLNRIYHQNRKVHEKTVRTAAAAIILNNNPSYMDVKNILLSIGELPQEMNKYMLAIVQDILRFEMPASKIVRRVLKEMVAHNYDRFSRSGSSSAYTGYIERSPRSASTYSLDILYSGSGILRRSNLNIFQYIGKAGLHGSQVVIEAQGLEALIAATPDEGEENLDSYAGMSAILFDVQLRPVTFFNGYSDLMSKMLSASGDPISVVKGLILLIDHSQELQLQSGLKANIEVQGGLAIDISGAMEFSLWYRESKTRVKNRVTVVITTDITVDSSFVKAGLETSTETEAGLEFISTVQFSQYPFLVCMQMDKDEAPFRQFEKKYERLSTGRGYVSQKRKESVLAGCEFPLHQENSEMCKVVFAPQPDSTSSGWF
Chain of human MTP (P07237 18-508 partner): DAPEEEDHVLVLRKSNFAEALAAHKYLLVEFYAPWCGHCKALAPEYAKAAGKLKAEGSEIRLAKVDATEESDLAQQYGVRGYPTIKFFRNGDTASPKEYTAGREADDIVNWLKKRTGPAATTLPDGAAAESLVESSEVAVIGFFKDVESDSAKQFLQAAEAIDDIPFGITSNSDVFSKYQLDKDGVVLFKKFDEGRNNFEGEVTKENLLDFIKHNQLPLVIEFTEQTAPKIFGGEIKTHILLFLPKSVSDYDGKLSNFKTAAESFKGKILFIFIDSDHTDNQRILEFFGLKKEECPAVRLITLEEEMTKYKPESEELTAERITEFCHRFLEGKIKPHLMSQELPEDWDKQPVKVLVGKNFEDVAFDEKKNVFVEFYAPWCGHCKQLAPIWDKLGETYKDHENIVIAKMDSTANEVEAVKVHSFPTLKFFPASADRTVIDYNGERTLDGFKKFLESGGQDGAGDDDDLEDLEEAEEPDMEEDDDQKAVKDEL

| SMILES | IC50 [nM] |
| --- | --- |
| Cc1cccc(C(=O)Nc2ccc(N3CCN(CC(N)=O)CC3)nc2)c1-c1ccc(C(C)C)cc1 [Example 1, 4′-Isopropyl-6-methyl-biphenyl-2-carboxylic acid [2-(4-carbamoylmethyl-piperazin-1-yl)-pyridin-5-yl]-amide] | 0.3 |
| Cc1cccc(C(=O)Nc2ccc(N3CCN(Cc4ccc[nH]4)CC3)nc2)c1-c1ccc(C(C)C)cc1 [Example 5, 4′-Isopropyl-6-methyl-biphenyl-2-carboxylic acid [2-(4-(1H-pyrrol-2-ylmethyl)piperazin-1-yl)-pyridin-5-yl]-amide] | 0.1 |
| CC(C)c1ccc(-c2c(C(=O)Nc3ccc(N4CCN(Cc5cccc(C#N)c5)CC4)nc3)cccc2C(C)C)cc1 [Example 15, 4′,6-Diisopropyl-biphenyl-2-carboxylic acid [2-(4-(3-cyano-benzyl)-piperazin-1-yl)-pyridin-5-yl]-amide] | 0.16 |
| C=CCN1CCN(c2ccc(NC(=O)c3cccc(C(C)C)c3-c3ccc(C(C)C)cc3)cn2)CC1 [Example 25] | < 0.1 |

System: not given
Experiment: not given
Conditions: not given

| SMILES | melting point [°C] |
| --- | --- |
| Cc1cccc(C(=O)Nc2ccc(N3CCN(CC(N)=O)CC3)nc2)c1-c1ccc(C(C)C)cc1 [Example 1, 4′-Isopropyl-6-methyl-biphenyl-2-carboxylic acid [2-(4-carbamoylmethyl-piperazin-1-yl)-pyridin-5-yl]-amide] | 200 to 202 |
| Cc1cccc(C(=O)Nc2ccc(N3CCN(CC(N)=O)CC3)nc2)c1-c1ccc(C(F)(F)F)cc1 [Example 2, 6-Methyl-4′-trifluoromethyl-biphenyl-2-carboxylic acid [2-(4-carbamoylmethyl-piperazin-1-yl)-pyridin-5-yl]-amide] | 180 to 181 |
| COc1cccc(C(=O)Nc2ccc(N3CCN(CC(N)=O)CC3)nc2)c1-c1ccc(C(C)C)cc1 [Example 3, 4′-Isopropyl-6-methoxy-biphenyl-2-carboxylic acid [2-(4-carbamoylmethyl-piperazin-1-yl)-pyridin-5-yl]-amide] | 210 to 212 |
| CC(C)c1ccc(-c2c(C(=O)Nc3ccc(N4CCN(CC(N)=O)CC4)nc3)cccc2C(C)C)cc1 [Example 4, 4′,6-Diisopropyl-biphenyl-2-carboxylic acid [2-(4-carbamoylmethyl-piperazin-1-yl)-pyridin-5-yl]-amide] | 169 |
| Cc1cccc(C(=O)Nc2ccc(N3CCN(Cc4ccc[nH]4)CC3)nc2)c1-c1ccc(C(C)C)cc1 [Example 5, 4′-Isopropyl-6-methyl-biphenyl-2-carboxylic acid [2-(4-(1H-pyrrol-2-ylmethyl)piperazin-1-yl)-pyridin-5-yl]-amide] | 130 |
| Cc1cccc(C(=O)Nc2ccc(N3CCN(Cc4ccc[nH]4)CC3)nc2)c1-c1ccc(C(F)(F)F)cc1 [Example 6, 6-Methyl4′-trifluoromethyl-biphenyl-2-carboxylic acid [2-(4-(1H-pyrrol-2-ylmethyl)piperazin-1-yl)-pyridin-5-yl]-amide] | 142 to 144 |
| COc1cccc(C(=O)Nc2ccc(N3CCN(Cc4ccc[nH]4)CC3)nc2)c1-c1ccc(C(C)C)cc1 [Example 7, 4′-Isopropyl-6-methoxy-biphenyl-2-carboxylic acid [2-(4-(1H-pyrrol-2-ylmethyl)piperazin-1-yl)-pyridin-5-yl]-amide] | 197 to 199 |
| Cc1noc(-c2cccc(CN3CCN(c4ccc(NC(=O)c5ccccc5-c5ccc(C(F)(F)F)cc5)cn4)CC3)c2)n1 [Example 9, 4′-Trifluoromethyl-biphenyl-2-carboxylic acid [2-(4-(3-(3-methyl-[1,2,4]oxadiazol-5-yl)-benzyl)-piperazin-1-yl)-pyridin-5-yl]-amide] | 192 to 194 |
| Cc1noc(-c2cccc(CN3CCN(c4ccc(NC(=O)c5cccc(C)c5-c5ccc(C(C)C)cc5)cn4)CC3)c2)n1 [Example 10, 4′-Isopropyl-6-methyl-biphenyl-2-carboxylic acid [2-(4-(3-(3-methyl-[1,2,4]oxadiazol-5-yl)-benzyl)-piperazin-1-yl)-pyridin-5-yl]-amide] | 150 to 152 |
| COc1cccc(C(=O)Nc2ccc(N3CCN(Cc4cccc(-c5nc(C)no5)c4)CC3)nc2)c1-c1ccc(C(C)C)cc1 [Example 12, 4′-Isopropyl-6-methoxy-biphenyl-2-carboxylic acid [2-(4-(3-(3-methyl-[1,2,4]oxadiazol-5-yl)-benzyl)-piperazin-1-yl)-pyridin-5-yl]-amide] | 136 to 138 |
| Cc1noc(-c2cccc(CN3CCN(c4ccc(NC(=O)c5cccc(C(C)C)c5-c5ccc(C(C)C)cc5)cn4)CC3)c2)n1 [Example 13, 4′,6-Diisopropyl-biphenyl-2-carboxylic acid [2-(4-(3-(3-methyl-[1,2,4]oxadiazol-5-yl)-benzyl)-piperazin-1-yl)-pyridin-5-yl]-amide] | 125 |
| O=C(Nc1ccc(N2CCN(Cc3ccco3)CC2)nc1)c1ccccc1-c1ccc(C(F)(F)F)cc1 [Example 14, 4′-Trifluoromethyl-biphenyl-2-carboxylic acid [2-(4-(furan-2-ylmethyl)piperazin-1-yl)-pyridin-5-yl]-amide] | 149 |
| CC(C)c1ccc(-c2c(C(=O)Nc3ccc(N4CCN(Cc5cccc(C#N)c5)CC4)nc3)cccc2C(C)C)cc1 [Example 15, 4′,6-Diisopropyl-biphenyl-2-carboxylic acid [2-(4-(3-cyano-benzyl)-piperazin-1-yl)-pyridin-5-yl]-amide] | 151 |
| N#Cc1cccc(CN2CCN(c3ccc(NC(=O)c4ccccc4-c4ccc(C(F)(F)F)cc4)cn3)CC2)c1 [Example 17, 4′-Trifluoromethyl-biphenyl-2-carboxylic acid [2-(4-(3-cyano-benzyl)-piperazin-1-yl)-pyridin-5-yl]-amide] | 168 |
| COc1cccc(C(=O)Nc2ccc(N3CCN(Cc4cccc(C#N)c4)CC3)nc2)c1-c1ccc(C(C)C)cc1 [Example 18, 4′-Isopropyl-6-methoxy-biphenyl-2-carboxylic acid [2-(4-(3-cyano-benzyl)-piperazin-1-yl)-pyridin-5-yl]-amide] | 194 to 196 |
| Cc1cccc(C(=O)Nc2ccc(N3CCN(Cc4cccc(C#N)c4)CC3)nc2)c1-c1ccc(C(C)C)cc1 [Example 19, 4′-Isopropyl-6-methyl-biphenyl-2-carboxylic acid [2-(4-(3-cyano-benzyl)-piperazin-1-yl)-pyridin-5-yl]-amide] | 154 to 156 |
| Cc1cccc(C(=O)Nc2ccc(N3CCN(Cc4cccc(C#N)c4)CC3)nc2)c1-c1ccc(C(F)(F)F)cc1 [Example 20, 6-Methyl-4′-trifluoromethyl-biphenyl-2-carboxylic acid [2-(4-(3-cyano-benzyl)-piperazin-1-yl)-pyridin-5-yl]-amide] | 164 to 166 |
| Cc1ccc(C(=O)Nc2ccc(N3CCN(Cc4cccc(C#N)c4)CC3)nc2)c(-c2ccc(C(C)C)cc2)c1 [Example 21, 4′-Isopropyl-5-methyl-biphenyl-2-carboxylic acid [2-(4-(3-cyano-benzyl)-piperazin-1-yl)-pyridin-5-yl]-amide] | 161 to 163 |
| Cc1ccc(C(=O)Nc2ccc(N3CCN(Cc4cccc(C#N)c4)CC3)nc2)c(-c2ccc(C(F)(F)F)cc2)c1 [Example 22, 5-Methyl-4′-trifluoromethyl-biphenyl-2-carboxylic acid [2-(4-(3-cyano-benzyl)-piperazin-1-yl)-pyridin-5-yl]-amide] | 158 to 160 |
| CCCN1CCN(c2ccc(NC(=O)c3cccc(C(C)C)c3-c3ccc(C(C)C)cc3)cn2)CC1 [Example 23, 4′,6-Diisopropyl-biphenyl-2-carboxylic acid-[2-(4-propyl-piperazin-1-yl)-pyridin-5-yl]-amide] | 126 to 128 |
| CC(C)c1ccc(-c2c(C(=O)Nc3ccc(N4CCN(C)CC4)nc3)cccc2C(C)C)cc1 [Example 24, 4′,6-Diisopropyl-biphenyl-2-carboxylic acid-[2-(4-methyl-piperazin-1-yl)-pyridin-5-yl]-amide] | 152 to 154 |
| C=C(C)N1CCN(c2ccc(NC(=O)c3cccc(C(C)C)c3-c3ccc(C(C)C)cc3)cn2)CC1 [Example 25, 4′,6-Diisopropyl-biphenyl-2-carboxylic acid-[2-(4-(propen-2-yl)-piperazin-1-yl)-pyridin-5-yl]-amide] | 124 |
| CC(C)c1ccc(-c2c(C(=O)Nc3ccc(N4CCN(C(C)C)CC4)nc3)cccc2C(C)C)cc1 [Example 26, 4′,6-Diisopropyl-biphenyl-2-carboxylic acid-[2-(4-(isopropyl)-piperazin-1-yl)-pyridin-5-yl]-amide] | 136 |

From patent publication US20040009988A1 (priority 2000, published 2004)
